Assay results reported in article PMC11056994, “Potentiating Activity of GmhA Inhibitors on Gram-Negative Bacteria” (Journal of Medicinal Chemistry, 2024).
Read-outs that look alike come from different tables or passages of the source.

Key:
[1] = tested on: E. coli C7 (018:K1:H7) LPS biosynthesis; assay: Inhibition of bacterial LPS biosynthesis (silver-stained LPS SDS-PAGE); format: cell-based; conditions: for EC50: Escherichia coli
Protocol: The compounds to be tested were prepared in deionized water/DMSO (50/50) solutions and added (25 μL) in sterile culture microtubes. The test bacterial isolate was isolated on tryptic soy agar (TSA) overnight. Isolated colonies were cultured in 10 mL of LB medium at 37 °C up to an OD of typically 0.15. These exponentially growing bacteria were finally diluted to 5 × 10^5 cfu/mL and added in each well (225 μL) for incubation with the compounds at 37 °C for approximately 5 h, up to an OD of ≈0.2–0.4. Some test compounds, e.g., phospho-sugars are actively transported into the bacterial cytosol via the phospho-sugar transporter UhpT (Figure S3). 2.5 μL portion of a 10 mM water solution of glucose-6-phosphate (G6P, 100 μM final concentration, from Sigma) was added in the culture tube in order to induce UhpT expression. LPS extraction: Bacterial cultures were normalized via OD determination, pelleted, and washed with 1 mL of phosphate-buffered-saline (PBS). The pellets were then denatured for 10 min at 95–100 °C in 50 μL of 0.2% sodium dodecyl sulfate (SDS), β-mercaptoethanol 1%, glycerol 36%, Tris 30 mM, pH 7.4, and bromophenol blue 0.001%. Samples were cooled down to room temperature, supplemented with 1.5 μL of proteinase K at 20 mg/mL, incubated for 1 h at 55 °C, and centrifuged for 30 min at 13,000 rpm at 25 °C. The resulting supernatant, containing LPS, was finally analyzed by SDS-PAGE electrophoresis. LPS SDS-PAGE electrophoresis: Polyacrylamide gels (16%/4% acrylamide for separation and concentration, respectively) were prepared, loaded with 8 μL of LPS extracts, and migrated. Silver staining: Gels were incubated overnight in 5% acetic acid/40% ethanol/deionized water, treated by 1% periodic acid/5% acetic acid for 15 min, washed 4 times for 10 min in deionized water, and finally incubated for 18 min in the dark in a silver nitrate solution composed of 56 mL of 0.1 M NaOH (56 mL), 33% aq ammonia (4 mL), 5% AgNO3 (45 mL), and deionized water (195 mL). Gels were then washed extensively in deionized water for 30 min and incubated for 10–15 min (up to LPS band appearance) in the revelation mix composed of 300 mL of deionized water (300 mL), 36.5% formaldehyde (0.3 mL, Fluka), and 2.3 M citric acid (0.1 mL). The revelation was stopped by incubating the gels in 10% acetic acid for 5 min. Gels were finally washed in deionized water, numerized with a Samsung PL51 camera, and analyzed by ImageJ software. The percentage of inhibition of LPS heptosylation was defined as the relative area of the Re-LPS band compared to the cumulated areas of Re-LPS and Core-LPS bands.

E. coli GmhA = E. coli GmhA (Escherichia coli, UniProt P63224); format: biochemical; conditions: for IC50: E. coli GmhA, luminescence assay, mean ± SD of at least 3 independent experiments
Protocol: The assay buffer “AB” contained 50 mM HEPES, pH 7.5, 1 mM MnCl2, 25 mM KCl, 0.012% Triton-X100, 1 mM dithiothreitol (DTT), and 0.1 μM myelin basic protein (MBP, Sigma, ref M1891). The following components were added in a white polystyrene Costar plate up to a final volume of 30 μL: 10 μL of inhibitor dissolved in DMSO/water 50/50 and 20 μL of GmhA of E. coli in AB. After 30 min of preincubation at room temperature, 30 μL of the substrate mixture in AB were added in each well to give a final volume of 60 μL. […] After 30 min of incubation at room temperature, 100 μL of the revelation mix were added to a final volume of 160 μL, including the following constituents at the respective final concentrations: 10,000 light units/mL luciferase (Sigma), 20 μM D-luciferin (Sigma), and 100 μM N-acetylcysteamine (Aldrich). Luminescence intensity was immediately measured on a Luminoskan instrument (Thermofisher) and converted into inhibition percentages. For IC50 determinations, the inhibitor was tested at 6 to 10 different concentrations, and the related inhibitions were fitted using XLFit 5 (IDBS) to a classical Langmuir equilibrium model with Hill slope, according to the equation: %inhibition = 100 c^n/(c^n + IC50^n), where c is the compound concentration and n is the Hill coefficient.

wild-type E. coli strain = tested on: wild-type E. coli strain; parameters: method as in PMID 21922563; conditions: cited from earlier work
GmhA = tested on: GmhA; parameters: method as in PMID 21922563; conditions: cited from earlier work
E. coli C7 (O18:K1:H7) [2] = assay: Time-kill kinetics of rifampicin in combination with compound 17; format: cell-based; conditions: 17 300 μM alone or rifampicin 1 mg/L alone
Protocol: Rifampicin (Fluka) was diluted in DMSO, and the compound to be tested was diluted in water from 50 mM stock solution in 50 mM HEPES buffer, pH 7.4. Ten microliter of DMSO was distributed in sterile 1.5 mL polypropylene microtubes (Eppendorf). 2.5 μL of compound dilution or water, 2.5 μL of Rifampicin or DMSO, 2.5 μL of 10 mM G6P in water (100 μM final concentration), and 230 μL of LB were added to the microtubes. E. coli C7 (O18:K1:H7) was grown in 5 mL of LB broth at 37 °C until mid-log phase. The suspension was then diluted in LB to obtain a 100× inoculum of 5 × 10^7 cfu/mL, 2.5 μL of which were added to each microtube (5 × 10^5 cfu/mL final inoculum). The microtubes were incubated at 37 °C, and aliquots of 10 μL were sampled at 0, 2, 4, 6, 8, and 24 h for bacterial enumeration in duplicate.

E. coli C7 (O18:K1:H7) [3] = assay: MIC determination of antibiotics combined with a GmhA inhibitor; format: cell-based; conditions: Escherichia coli, n = 1
Protocol: (§1) The compound to be tested was diluted in 50 mM HEPES buffer (pH 7.4) from 10 mM stock solution in DMSO. Five microliters of compound dilution or buffer were distributed in a sterile clear round-bottom 96-well polystyrene microplate (Corning). Five microliters of serial 2-fold dilutions of reference antibiotics [Erythromycin (Fluka), Rifampicin (Fluka)] in DMSO were added. An exponentially growing preculture of E. coli C7 (O18:K1:H7) in LB was diluted to 10^4 cfu/mL and supplemented with 100 μM G6P, and 90 μL of this suspension were added to the microplates. After overnight incubation at 37 °C, the MIC of the antibiotics were determined for each test compound concentration as the lowest antibiotic concentration for which no bacterial pellet is visible without magnification.

E. coli C7 gmhA- = assay: Complementation of E. coli C7-gmhA- by H7P (LPS SDS-PAGE, UhpT transport); format: cell-based
Protocol: Figure S3: Role of UhpT phospho-sugar transporter in the transport of D-glycero-D-manno-heptose
7-phosphate (H7P). Complementation of E. coli C7-gmhA- by the GmhA product H7P. Silver-stained
LPS SDS-PAGE of E. coli C7 WT (lane 1) or gmhA- (lanes 2 -4). Culture in presence of 300 µM H7P (lane
100 µM glucose -6-phosphate (G6P) allows a strong transport of H7P, as evidenced by the restoration
(1 picture or pasted object on this page, not shown here)

E. coli C7 [4] = assay: Sensitization to killing by the complement of human serum; format: cell-based; conditions: E. coli C7 grown 5 h with 0.3 and 1 mM compound 24; in 30 min
Protocol: The E. coli C7 wild type and gmhA-deleted strains were isolated from TSA plates and grown overnight in 10 mL of LB broth at 35 °C. […] After 5 h of incubation under shaking at 37 °C, the bacterial inoculum was adjusted to 10^5 cfu/mL in 20% LB broth mixed with 80% human serum (Biopredic) and filtered on 0.45 μm pore size membranes and used as such, or further heated for 30 min at 56 °C for complement deactivation. A volume of 250 μL of each condition was finally incubated at 37 °C in microtubes, and aliquots of 10 μL were sampled at 0, 15, 30, 60, 120, and 180 min for bacterial enumeration in duplicate.

HepG2 cytotoxicity = format: cell-based; conditions: human; n = 2
Protocol: HepG2 cells (LGC Promochem, ref HB-8065) in EMEM medium supplemented with fetal bovine serum (10%), Ampicillin (100 mg/L), and Streptomycin (100 mg/L) were plated on cell culture plates (Costar 3596, 2 × 10^4 cells/well) and incubated overnight at 37 °C in 5% CO2. The culture medium was then aspirated and replaced by supplemented EMEM (210 μL including 2% DMSO) containing dilutions of compounds. Plates were incubated overnight at 37 °C in 5% CO2. Cell viability was determined by the Celltiter Aqueous One Cell Proliferation Assay (G3581–80, Promega) according to the manufacturer’s recommendations, using a Multiskan absorption reader (490 nm).

E. coli C7 [5] = assay: MIC of the compounds alone on E. coli C7; format: cell-based
Protocol: Then, we investigated the cytotoxicity and the ability of such inhibitors to potentiate the antimicrobial activity of macrolide and rifamycin antibiotics.
as §1

[6] = E. coli C7 LPS biosynthesis by SDS-PAGE, mean ± SD of 3 experiments for 17 and 24, n = 1 for others, read-out: EC50
[7] = antibiotic alone, E. coli C7, 100 μM G6P, read-out: MIC alone
[8] = antibiotic combined with 100 μM 17, E. coli C7, 100 μM G6P, read-out: MIC +100 μM cpd 17

Sequence of E. coli GmhA (P63224 whole entry): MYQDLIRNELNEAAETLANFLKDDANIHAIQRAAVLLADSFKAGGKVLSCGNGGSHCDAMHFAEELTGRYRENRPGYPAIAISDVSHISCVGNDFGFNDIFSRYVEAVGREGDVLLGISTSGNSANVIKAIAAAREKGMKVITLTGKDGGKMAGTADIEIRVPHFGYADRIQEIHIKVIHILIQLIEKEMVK

## O=CN(O)C[C@H](O)[C@H](O)[C@H](O)CP(=O)(O)O [Compound 20]
[1]; [6]
  EC50: > 3000 µM
E. coli GmhA
  IC50: 2.2 ± 0.5 µM

## O=CN(O)C[C@H](O)[C@H](O)[C@H](O)C(O)C(O)P(=O)(O)O (some centres unmarked) [Compound 27]
[1]
  EC50: > 3000 µM
E. coli GmhA
  IC50: 2.3 ± 0.6 µM

## COC1O[C@H]([C@H](O)COP(=O)(O)O)[C@@H](O)[C@H](O)[C@H]1O (stereo partly drawn) [methyl 7-O-phosphoryl-D-glycero-D-gluco-heptopyranoside]
wild-type E. coli strain
  heptosylation inhibition at 1 mM: too high to demonstrate heptosylation inhibition
GmhA
  IC50 values (in words): low micromolar range

## O=CN(O)C[C@@H](O)[C@H](O)[C@H](O)CCP(=O)(O)O [Compound 54]
[1]
  EC50: > 300 µM
E. coli GmhA
  IC50: 9.2 ± 1.6 µM

## O=C(NO)[C@@H](O)[C@H](O)[C@H](O)[C@H](O)COP(=O)(O)O [Compound 96]
[1]; E. coli culture of the LPS assay
  concentration above which bacterial growth is affected: > 100 µM
[1]; [6]
  EC50: > 100 µM
E. coli GmhA
  GmhA inhibition IC50 (in words): low nanomolar range
  IC50: 0.016 ± 0.006 µM

## O=CN(O)C[C@H](O)[C@H](O)[C@H](O)CC(F)(F)P(=O)(O)O [Compound 84]
[1]
  EC50: 510 µM

## O=CN(O)C[C@H](O)C[C@H](O)CCP(=O)(O)O [Compound 68]
[1]; [6]
  EC50: 1200 µM
E. coli GmhA
  IC50: 3 ± 0.2 µM

## CO[C@H]1/C=C/O[C@@]2(C)Oc3c(C)c(O)c4c(O)c(c(/C=N/N5CCN(C)CC5)c(O)c4c3C2=O)NC(=O)/C(C)=C\C=C\[C@H](C)[C@H](O)[C@@H](C)[C@@H](O)[C@@H](C)[C@H](OC(C)=O)[C@@H]1C [Rifampicin]
E. coli C7 (O18:K1:H7) [2]
  effect on bacterial growth, compound alone: did not alter at all the bacterial growth
E. coli C7 (O18:K1:H7) [3]; [7]
  MIC: 4 mg/L
E. coli C7 (O18:K1:H7) [3]; [8]
  MIC: 0.25 mg/L

## O=C[C@@H](O)[C@@H](O)[C@H](O)[C@H](O)[C@H](O)COP(=O)(O)O [H7P, D-glycero-D-manno-heptose 7-phosphate]
E. coli C7 gmhA-; 300 µM H7P, without G6P (lane 3)
  LPS profile restoration in gmhA- strain: restores some full length LPS
E. coli C7 gmhA-; H7P with UhpT induction by 100 µM glucose-6-phosphate (lane 4)
  LPS profile restoration in gmhA- strain: full LPS profile

## O=CN(O)C[C@H](O)[C@H](O)[C@H](O)C(O)CP(=O)(O)O (some centres unmarked) [Compound 31]
[1]
  EC50: 590 µM
E. coli GmhA
  IC50: 0.25 ± 0.02 µM

## O=CN(O)C[C@H](O)[C@H](O)[C@H](O)/C=C/P(=O)(O)O [Compound 25]
[1]
  EC50: 1300 µM
E. coli GmhA
  IC50: 0.15 ± 0.03 µM

## O=CN(O)C[C@H](O)[C@H](O)[C@H](O)CCP(=O)([O-])O.[Na+] [Compound 24]
E. coli C7 [4]
  reduction of the bacterial load in 80% human serum: 3 log
HepG2 cytotoxicity
  CC50: > 1000 µM
[1]
  EC50: 22 ± 4 µM
E. coli C7 [5]; Escherichia coli, C7, read-out: MIC E. coli C7
  MIC: > 1000 µM
E. coli C7 [5]; compound alone, n = 2, read-out: MIC E. coli C7
  MIC: >1000 µM

## O=CN(O)C[C@H](O)[C@H](O)[C@H](O)CC(F)P(=O)([O-])O.[Na+] (some centres unmarked) [Compound 76]
[1]
  EC50: 76 µM
E. coli GmhA
  GmhA inhibition IC50 (in words): low nanomolar range

## O=CN(O)C[C@H](O)[C@H](O)[C@H](O)CC(O)P(=O)(O)O (some centres unmarked) [Compound 41]
[1]
  EC50: 750 µM
E. coli GmhA
  IC50: 0.075 ± 0.009 µM

## CC[C@H]1OC(=O)[C@H](C)[C@@H](O[C@H]2C[C@@](C)(OC)[C@@H](O)[C@H](C)O2)[C@H](C)[C@@H](O[C@@H]2O[C@H](C)C[C@H](N(C)C)[C@H]2O)[C@](C)(O)C[C@@H](C)C(=O)[C@H](C)[C@@H](O)[C@]1(C)O [Erythromycin]
E. coli C7 (O18:K1:H7) [3]; [7]
  MIC: 32 mg/L
E. coli C7 (O18:K1:H7) [3]; [8]
  MIC: 1 mg/L
